From patent US20220298143A1, “Pyrazole Derivatives for FGFR Inhibitor and Preparation Method Thereof” (Etern Biopharma (Shanghai) Co., Ltd., priority 2019, published 2022)
Read-outs that look alike come from different tables or passages of the source.

Columns and labels:
[1] = tested on: Hep3B cells; test: Human liver cancer cell Hep3B survival test (CellTiter-Glo); type: cell-based; settings: 72 hours compound treatment
Experimental: Human Liver Cancer Cell Hep3B Survival Test
The human liver cancer Hep3B cell line was from ATCC. The cells were cultured in DMEM liquid medium, and fetal bovine serum (10% FBS) and penicillin-streptomycin (100,000 U/L) were added. The cells were kept at 37° C., 95% humidity and 5% carbon dioxide in the culture medium. During the experiment, Hep3B cells were seeded in a 96-well plate at a density of 3000 cells per well. The volume of the cell suspension was 100 μL per well, and the cells were cultured overnight to attach the cells. The next day, each compound was diluted with DMSO in a three-fold gradient, and 1 μL of the solution of the compound in DMSO was added to the cell culture medium. At the same time, 1 μL of DMSO was used as a control. Three parallel sub-wells were set for each concentration of each compound. Then the cells were placed in a 37° C. incubator. After 72 hours of continuous compound treatment, 50 μL CellTiter-Glo (Promega, Madison Wis.) was added to the cell culture medium. The relative luminescence unit (RLU) of each well was determined and the cell survival rate and compound activity (IC50) were calculated.

[2] = molecular target: T1, FGFR1 (Homo sapiens, UniProt P11362); test: Enzymatic activity test of FGFR inhibitor, Caliper model; type: biochemical
T1 construct: purchased Cama (sic; Carna) 08-133
T1 sequence (P11362 22-822): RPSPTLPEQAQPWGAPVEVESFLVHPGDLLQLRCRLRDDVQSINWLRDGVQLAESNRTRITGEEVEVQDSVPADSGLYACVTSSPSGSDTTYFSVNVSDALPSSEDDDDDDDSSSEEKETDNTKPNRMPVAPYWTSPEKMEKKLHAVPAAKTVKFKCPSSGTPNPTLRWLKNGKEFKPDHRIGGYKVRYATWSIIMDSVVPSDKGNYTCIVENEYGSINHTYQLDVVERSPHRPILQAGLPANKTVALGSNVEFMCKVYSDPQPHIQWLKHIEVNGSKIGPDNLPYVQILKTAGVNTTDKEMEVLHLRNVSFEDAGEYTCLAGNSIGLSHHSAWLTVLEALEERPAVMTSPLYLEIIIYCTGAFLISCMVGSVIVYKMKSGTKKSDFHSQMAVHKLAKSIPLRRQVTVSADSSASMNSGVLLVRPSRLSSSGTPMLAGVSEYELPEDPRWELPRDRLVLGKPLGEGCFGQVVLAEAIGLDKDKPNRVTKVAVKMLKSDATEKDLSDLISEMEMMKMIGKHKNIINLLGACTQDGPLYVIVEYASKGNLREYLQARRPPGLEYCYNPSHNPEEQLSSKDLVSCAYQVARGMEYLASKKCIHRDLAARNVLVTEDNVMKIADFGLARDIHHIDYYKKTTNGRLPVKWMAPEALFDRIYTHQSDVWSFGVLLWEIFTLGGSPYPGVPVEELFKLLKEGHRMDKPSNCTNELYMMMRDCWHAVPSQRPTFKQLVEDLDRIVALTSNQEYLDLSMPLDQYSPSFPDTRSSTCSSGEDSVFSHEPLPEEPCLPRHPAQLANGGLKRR
Experimental: (§1) Enzymatic Activity Test of FGFR Inhibitor-Caliper Model
(§2) The specific operation steps were as follows:
(§3) The compound was first serially diluted in 5% DMSO solution, and 5 μL of the compound solution was added to a 384-well plate. The maximum final concentration of the compound is 1 μM, being diluted three times with 10 concentrations.
(§4) 10 μL of kinase solution was added to the 384-well plate and incubated at room temperature for 10 minutes;
(§5) 10 μL of P22 peptide and ATP solution were added to the 384-well plate, and 25 μL of reaction stop buffer was added after a specific time at 28° C.;
(§6) The data was collected in Caliper read and the inhibition rate was calculated according to inhibition rate=(max−conversion)/(max−min)*100, where max is DMSO control, conversion is the reading of the compound treated group, and min is the maximum inhibition control. IC50 value of the compound was calculated with XLfit excel add-in version 5.4.0.8 software.

[3] = molecular target: FGFR2 (Homo sapiens, UniProt P21802); test: as above; type: biochemical; settings: kinase pre-incubation 10 minutes
Chain of FGFR2 (P21802 22-821): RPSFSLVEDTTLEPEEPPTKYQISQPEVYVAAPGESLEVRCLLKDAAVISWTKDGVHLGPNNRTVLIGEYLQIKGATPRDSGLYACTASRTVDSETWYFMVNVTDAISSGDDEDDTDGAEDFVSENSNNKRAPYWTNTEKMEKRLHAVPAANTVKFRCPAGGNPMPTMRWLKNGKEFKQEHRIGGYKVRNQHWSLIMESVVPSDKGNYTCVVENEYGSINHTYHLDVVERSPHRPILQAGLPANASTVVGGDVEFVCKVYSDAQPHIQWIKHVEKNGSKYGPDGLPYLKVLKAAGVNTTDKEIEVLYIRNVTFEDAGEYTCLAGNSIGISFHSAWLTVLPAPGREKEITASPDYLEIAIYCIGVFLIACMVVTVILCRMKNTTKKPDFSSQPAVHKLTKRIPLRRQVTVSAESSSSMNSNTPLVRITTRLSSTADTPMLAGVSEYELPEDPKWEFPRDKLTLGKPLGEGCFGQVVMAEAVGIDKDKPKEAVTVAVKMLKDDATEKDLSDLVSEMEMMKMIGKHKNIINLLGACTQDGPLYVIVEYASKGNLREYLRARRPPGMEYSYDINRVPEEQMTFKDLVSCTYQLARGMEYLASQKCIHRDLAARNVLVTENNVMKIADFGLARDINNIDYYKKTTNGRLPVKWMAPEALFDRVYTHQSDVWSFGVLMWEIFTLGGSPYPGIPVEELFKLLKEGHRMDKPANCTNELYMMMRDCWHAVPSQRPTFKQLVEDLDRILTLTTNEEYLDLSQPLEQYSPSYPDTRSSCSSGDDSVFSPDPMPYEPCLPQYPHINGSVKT

[4] = molecular target: FGFR3 (Homo sapiens, UniProt P22607); test: as above; type: biochemical; settings: kinase pre-incubation 10 minutes
Chain of FGFR3 (P22607 23-806): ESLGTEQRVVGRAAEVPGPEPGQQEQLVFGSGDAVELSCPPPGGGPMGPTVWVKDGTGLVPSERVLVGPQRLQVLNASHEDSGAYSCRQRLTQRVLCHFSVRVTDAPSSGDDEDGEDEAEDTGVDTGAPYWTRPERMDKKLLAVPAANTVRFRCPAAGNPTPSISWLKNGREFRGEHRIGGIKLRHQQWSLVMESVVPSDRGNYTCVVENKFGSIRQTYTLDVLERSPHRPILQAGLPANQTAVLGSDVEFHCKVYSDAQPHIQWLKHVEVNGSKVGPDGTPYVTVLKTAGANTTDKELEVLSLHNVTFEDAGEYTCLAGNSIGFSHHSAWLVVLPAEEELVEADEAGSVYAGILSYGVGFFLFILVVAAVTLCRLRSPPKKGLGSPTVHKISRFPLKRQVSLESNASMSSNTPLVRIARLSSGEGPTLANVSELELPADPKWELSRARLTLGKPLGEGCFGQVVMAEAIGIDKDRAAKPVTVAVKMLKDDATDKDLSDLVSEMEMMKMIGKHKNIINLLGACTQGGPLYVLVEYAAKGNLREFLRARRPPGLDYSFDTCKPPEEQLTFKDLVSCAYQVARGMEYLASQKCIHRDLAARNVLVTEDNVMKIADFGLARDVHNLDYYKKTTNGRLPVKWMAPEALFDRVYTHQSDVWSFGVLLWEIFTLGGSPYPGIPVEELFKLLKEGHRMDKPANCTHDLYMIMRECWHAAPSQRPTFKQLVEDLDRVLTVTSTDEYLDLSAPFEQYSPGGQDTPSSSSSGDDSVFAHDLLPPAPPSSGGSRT

[5] = molecular target: T2, FGFR4 (Homo sapiens, UniProt P22455); test: as above; type: biochemical
T2 construct: purchased Invitrogen PR4380A
T2 sequence (P22455 22-802): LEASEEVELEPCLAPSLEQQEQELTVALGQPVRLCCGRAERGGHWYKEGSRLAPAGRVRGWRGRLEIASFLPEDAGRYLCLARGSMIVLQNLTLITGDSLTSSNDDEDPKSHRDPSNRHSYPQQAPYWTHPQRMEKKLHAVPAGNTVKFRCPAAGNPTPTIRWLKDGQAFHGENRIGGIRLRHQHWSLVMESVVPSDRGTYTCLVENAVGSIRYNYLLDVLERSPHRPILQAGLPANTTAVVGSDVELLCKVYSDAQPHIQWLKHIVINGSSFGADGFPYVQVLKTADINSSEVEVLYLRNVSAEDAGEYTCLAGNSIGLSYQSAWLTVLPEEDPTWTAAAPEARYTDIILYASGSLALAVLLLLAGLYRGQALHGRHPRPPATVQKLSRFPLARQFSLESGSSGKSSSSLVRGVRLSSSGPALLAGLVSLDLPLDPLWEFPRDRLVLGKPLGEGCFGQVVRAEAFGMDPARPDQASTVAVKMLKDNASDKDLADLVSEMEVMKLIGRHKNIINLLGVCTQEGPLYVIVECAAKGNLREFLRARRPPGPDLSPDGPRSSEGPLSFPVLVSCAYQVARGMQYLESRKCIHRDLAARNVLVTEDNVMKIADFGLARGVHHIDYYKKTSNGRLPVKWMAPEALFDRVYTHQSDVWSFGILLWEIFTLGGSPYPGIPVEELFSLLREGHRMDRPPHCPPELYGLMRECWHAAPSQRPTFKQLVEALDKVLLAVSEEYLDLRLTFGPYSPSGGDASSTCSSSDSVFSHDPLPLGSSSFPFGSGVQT
Experimental: as §1, §2, §3, §4, §5, §6

[6] = Compound pharmacokinetic experiment, single intragastric administration; type: in vivo; settings: mouse, plasma, male mice, oral dosage 15 mg/Kg; for Cmax: read-out: Peak plasma concentration Cmax; for AUC: read-out: Plasma exposure AUC
Experimental: Compound Pharmacokinetic Experiment
The pharmacokinetics of the compounds of the present disclosure was determined. This application used the following methods to determine the pharmacokinetic parameters of the compounds.
For the healthy male adult mice used in the study, each group of animals was given a single intragastric administration of 5-100 mg/Kg. Fasting was from 10 hours before administration to 4 hours after administration. Blood was collected at different time points after administration, and the plasma content of the compound was determined (LC-MS/MS). The plasma concentration-time relationship was analyzed with professional software (winnonlin) to calculate the pharmacokinetic parameters of the compound.

[7] = Caliper, kinase pre-incubation 10 minutes, read-out: FGFR1
[8] = Caliper, kinase pre-incubation 10 minutes, read-out: FGFR4

| Structure (SMILES) | IC50 [2, 7] | IC50 [3] | IC50 [4] | IC50 [5, 8] | Cmax [6] | AUC [6] | IC50 [1] | IC50 [2] | IC50 [5] |
| --- | --- | --- | --- | --- | --- | --- | --- | --- | --- |
| COc1cc(CCc2cc(NC(=O)c3ccc(N4C[C@@H](C)N[C@@H](C)C4)cc3)n[nH]2)cc(OC)c1 [AZD4547, reference compound] |  |  |  |  |  |  | 263 nM |  |  |
| C=CC(=O)Nc1cc(N2CCN(CC(F)(F)F)CC2)ccc1C(=O)Nc1cc(CCc2cc(OC)cc(OC)c2)n[nH]1 [Compound 2, 2-acrylamide-N-(3-(3,5-dimethoxyphenethyl)-1H-pyrazol-5-yl)-4-(4-(2,2,2-trifluoroethyl)piperazin-1-yl) benzamide] | 3.3 nM | 3.7 nM | 2.8 nM | 3.3 nM | 2580 nM | 7.52 µM·h | 0.8 nM |  |  |
| C=CC(=O)Nc1cc(N2CCN(CC(F)F)CC2)ccc1C(=O)Nc1cc(CCc2cc(OC)cc(OC)c2)n[nH]1 [Compound 3, 2-acrylamide-4-(4-(2,2-difluoroethyl)piperazin-1-yl)-N-(3-(3,5-dimethoxyphenethyl)-1H-pyrazol-5-yl)benzamide] |  | 5.3 nM | 4.6 nM |  |  |  | 3 nM | 3.6 nM | 5.7 nM |
| C=CC(=O)Nc1cc(OCC(F)(F)F)ccc1C(=O)Nc1cc(CCc2cc(OC)cc(OC)c2)n[nH]1 [Compound 5, 2-acrylamido-N-(3-(3,5-dimethoxyphenethyl)-1H-pyrazol-5-yl)-4-(2,2,2-trifluoroethoxy)benzamide] | 2.7 nM | 2.7 nM | 2.4 nM | 2.5 nM |  |  | 9 nM |  |  |
| C=CC(=O)Nc1cc(N2CC(F)(F)C2)ccc1C(=O)Nc1cc(CCc2cc(OC)cc(OC)c2)n[nH]1 [Compound 6, 2-acrylamido-4-(3,3-difluoroazetidin-1-yl)-N-(3-(3,5-dimethoxyphenethyl)-1H-pyrazole-5-yl)benzamide] | 2.4 nM | 2.3 nM | 1.7 nM | 2 nM |  |  | 3 nM |  |  |
| C=CC(=O)Nc1cc(N2CCC(F)(F)CC2)ccc1C(=O)Nc1cc(CCc2cc(OC)cc(OC)c2)n[nH]1 [Compound 7, 2-acrylamido-4-(4,4-difluoropiperidin-1-yl)-N-(3-(3,5-dimethoxyphenethyl)-1H-pyrazol-5-yl)benzamide] | 2.1 nM | 3.4 nM | 2.3 nM | 3.2 nM |  |  | 6 nM |  |  |
| C=CC(=O)Nc1cc(N2CCC(F)(F)C2)ccc1C(=O)Nc1cc(CCc2cc(OC)cc(OC)c2)n[nH]1 [Compound 8, 2-acrylamido-4-(3,3-difluoropyrrolidin-1-yl)-N-(3-(3,5-dimethoxyphenethyl)-1H-pyrazol-5-yl)benzamide] | 2.7 nM | 2.8 nM | 2.3 nM | 2.7 nM |  |  | 8 nM |  |  |
| C=CC(=O)Nc1cc(N2CCN(CCC(F)(F)F)CC2)cc(F)c1C(=O)Nc1cc(CCc2cc(OC)cc(OC)c2)n[nH]1 [Compound 16, 2-acrylamido-N-(3-(3,5-dimethoxyphenethyl)-1H-pyrazol-5-yl)-6-fluoro-4-(4-(3,3,3-trifluoropropyl)piperazin-1-yl)benzamide] |  |  |  |  |  |  | 0.3 nM |  |  |
| C=CC(=O)Nc1ccccc1C(=O)Nc1cc(CCc2cc(OC)cc(OC)c2)[nH]n1 [Control a, 2-acrylamido-N-(3-(3,5-dimethoxyphenethyl)-1H-pyrazol-5-yl)benzamide, reference compound] | 4.5 nM | 2.2 nM | 1.7 nM |  | 377 nM | 0.404 µM·h | 5 nM |  |  |

Further lines, with some results ahead:

| IC50 [2, 7] | IC50 [3] | IC50 [4] | IC50 [5, 8] | Cmax [6] | AUC [6] | Structure (SMILES) | IC50 [1] | IC50 [2] | IC50 [5] |
| --- | --- | --- | --- | --- | --- | --- | --- | --- | --- |
| 3.1 nM | 4.4 nM | 4.4 nM | 3.6 nM |  |  | C=CC(=O)Nc1cc(OCCC(F)(F)F)ccc1C(=O)Nc1cc(CCc2cc(OC)cc(OC)c2)n[nH]1 [Compound 9, 2-acrylamido-N-(3-(3,5-dimethoxyphenethyl)-1H-pyrazol-5-yl)-4-(3,3,3-trifluoropropoxy)benzamide] | 2 nM |  |  |
| 5.7 nM | 6.1 nM | 7.4 nM | 4.4 nM | 1250 nM | 2.41 µM·h | C=CC(=O)Nc1cc(N2CCN(CCC(F)(F)F)CC2)c(OC)cc1C(=O)Nc1cc(CCc2cc(OC)cc(OC)c2)n[nH]1 [Compound 10, 2-acrylamido-N-(3-(3,5-dimethoxyphenethyl)-1H-pyrazol-5-yl)-5-methoxy-4-(4-(3,3,3-trifluoropropyl)piperazin-1-yl)benzamide] | 3 nM |  |  |
| 2.7 nM | 4.1 nM | 3 nM | 3.9 nM | 663 nM | 1.42 µM·h | C=CC(=O)Nc1cc(N2CCN(CCC(F)(F)F)C(C)C2)ccc1C(=O)Nc1cc(CCc2cc(OC)cc(OC)c2)n[nH]1 (stereo not shown) [Compound 12, 2-acrylamido-N-(3-(3,5-dimethoxyphenethyl)-1H-pyrazol-5-yl)-4-(3-methyl-4-(3,3,3-trifluoropropyl)piperazin-1-yl)benzamide] | 0.5 nM |  |  |
| 3.4 nM | 4.9 nM | 3.1 nM | 3.8 nM |  |  | C=CC(=O)Nc1cc(N(C)CCC(F)(F)F)ccc1C(=O)Nc1cc(CCc2cc(OC)cc(OC)c2)n[nH]1 [Compound 13, 2-acrylamido-N-(3-(3,5-dimethoxyphenethyl)-1H-pyrazol-5-yl)-4-(methyl(3,3,3-trifluoropropyl)amino)benzamide] | 12 nM |  |  |
| 6.1 nM | 5.9 nM | 5.8 nM | 5.9 nM | 344 nM | 1.15 µM·h | C=CC(=O)Nc1cc(N2CCN(CC(F)(F)C(F)(F)F)CC2)ccc1C(=O)Nc1cc(CCc2cc(OC)cc(OC)c2)n[nH]1 [Compound 14, 2-acrylamido-N-(3-(3,5-dimethoxyphenethyl)-1H-pyrazol-5-yl)-4-(4-(2,2,3,3,3-pentafluoropropyl)piperazin-1-yl)benzamide] | 7 nM |  |  |
| 4.8 nM | 4.5 nM | 3.9 nM | 4.4 nM |  |  | C=CC(=O)Nc1cc(N2CCN(CCC(F)(F)F)CC2)cnc1C(=O)Nc1cc(CCc2cc(OC)cc(OC)c2)n[nH]1 [Compound 15, 3-acrylamido-N-(3-(3,5-dimethoxyphenethyl)-1H-pyrazol-5-yl)-5-(4-(3,3,3-trifluoropropyl)piperazin-1-yl)pyridinecarboxamide] | 12 nM |  |  |
